Biological target: human TMEM16A (TMEM16Aabc variant) (Homo sapiens, UniProt Q5XXA6, DEL476-501, form not given)
Test: Automated whole-cell patch clamp (Qpatch) TMEM16A potentiator assay in FRT cells stably expressing human TMEM16A
Format: cell-based
Conditions: for % Potentiation @ 3.33 μM Avg: 3.33 μM solution of test compound, percentage increase of baseline TMEM16A current; for EC50: calculated EC50, Qpatch TMEM16A current at +70 mV
In short: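 FRT cells stably expressing human TMEM16Aabc were recorded by automated whole-cell patch clamp, with intracellular Ca2+ buffered for ~EC20 activation, holding −70 mV and step to +70 mV at 0.05 Hz. Compound was applied cumulatively, 5 min per concentration. Peak current increase as % of baseline was fitted to give EC50 and maximum efficacy.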

human TMEM16A (TMEM16Aabc variant), sequence (Q5XXA6 with tags, fused parts or gaps DEL476-501): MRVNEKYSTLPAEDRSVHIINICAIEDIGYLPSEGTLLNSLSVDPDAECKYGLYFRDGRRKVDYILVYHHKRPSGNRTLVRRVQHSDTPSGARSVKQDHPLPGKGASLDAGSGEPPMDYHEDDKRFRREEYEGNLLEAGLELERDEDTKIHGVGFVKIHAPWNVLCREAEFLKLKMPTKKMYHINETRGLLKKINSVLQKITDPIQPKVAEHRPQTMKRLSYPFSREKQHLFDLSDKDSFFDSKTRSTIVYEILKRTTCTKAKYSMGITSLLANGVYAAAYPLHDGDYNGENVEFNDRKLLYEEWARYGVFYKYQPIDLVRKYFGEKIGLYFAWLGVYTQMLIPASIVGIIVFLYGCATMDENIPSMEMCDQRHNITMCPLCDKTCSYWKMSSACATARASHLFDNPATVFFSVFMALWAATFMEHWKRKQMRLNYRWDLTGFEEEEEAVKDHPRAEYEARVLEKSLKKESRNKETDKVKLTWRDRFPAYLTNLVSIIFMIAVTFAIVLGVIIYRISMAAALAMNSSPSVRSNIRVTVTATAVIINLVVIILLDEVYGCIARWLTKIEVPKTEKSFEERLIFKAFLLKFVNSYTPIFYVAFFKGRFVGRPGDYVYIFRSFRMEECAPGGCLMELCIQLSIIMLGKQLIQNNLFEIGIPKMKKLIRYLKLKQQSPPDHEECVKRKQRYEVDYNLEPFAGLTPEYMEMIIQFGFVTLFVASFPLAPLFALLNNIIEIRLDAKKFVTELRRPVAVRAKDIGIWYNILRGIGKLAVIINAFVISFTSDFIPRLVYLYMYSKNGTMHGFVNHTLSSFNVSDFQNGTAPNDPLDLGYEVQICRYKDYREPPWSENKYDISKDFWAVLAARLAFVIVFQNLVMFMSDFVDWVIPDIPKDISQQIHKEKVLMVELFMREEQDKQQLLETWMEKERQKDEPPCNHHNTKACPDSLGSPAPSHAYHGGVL

Compound | % Potentiation @ 3.33 μM Avg [%] | EC50 [nM]
CC(C)(C)NC(=O)c1cccc(NC(=O)Cc2n[nH]c3ccccc23)c1 [Example 4.1, N-tert-Butyl-3-[[2-(1H-indazol-3-yl)acetyl]amino]benzamide] | 79 | 2170
C#CC(C)(C)NC(=O)c1cc(NC(=O)CC2CCC(F)(F)CC2)ccn1 [Example 5.34, 4-[[2-(4,4-Difluorocyclohexyl)acetyl]amino]-N-(1,1-dimethylprop-2-ynyl)pyridine-2-carboxamide] | 185 | 640
Cc1ccc(CC(=O)Nc2ccnc(C(=O)NC(C)(C)C)c2)cc1 [Example 5.11, N-tert-Butyl-4-[[2-(p-tolyl)acetyl]amino]pyridine-2-carboxamide] | 89 | 170
CC(C#N)(CO)NC(=O)c1cc(NC(=O)Cc2cc(F)ccc2O)ccn1 (centres unmarked) [Example 81.1, N-(1-Cyano-2-hydroxy-1-methyl-ethyl)-4-[[2-(5-fluoro-2-hydroxy-phenyl)acetyl]amino] pyridine-2-carboxamide] | 108 | –
COc1ccc(CC(=O)Nc2cccc(C(=O)NC(C)(C)C)c2)c(O)c1 [Example 2.14, N-tert-Butyl-3-[[2-(2-hydroxy-4-methoxy-phenyl)acetyl]amino]benzamide] | 100 | 1780
CC(C)(C)NC(=O)c1cc(NC(=O)Cc2ccccc2F)ccn1 [Example 5.12, N-tert-Butyl-4-[[2-(2-fluorophenyl)acetyl]amino]pyridine-2-carboxamide] | 100 | 760
CC(C)(C#N)NC(=O)c1cc(NC(=O)Cc2ccc(Cl)c(O)c2)ccn1 [Example 92.1, 4-[[2-(4-Chloro-3-hydroxy-phenyl)acetyl]amino]-N-(1-cyano-1-methyl-ethyl)pyridine-2-carboxamide] | 151 | 140
O=C(Cc1cc(Cl)ccc1O)Nc1ccnc(C(=O)NC2(CO)CCOCC2)c1 [Example 53, 4-[[2-(5-Chloro-2-hydroxy-phenyl)acetyl]amino]-N-[4-(hydroxymethyl)tetrahydropyran-4-yl]pyridine-2-carboxamide] | 184 | 390
CC(C)(C)NC(=O)c1cc(NC(=O)Cc2cc(F)ccc2Cl)ccn1 [Example 40.1, N-tert-Butyl-4-[[2-(2-chloro-5-fluoro-phenyl)acetyl]amino] pyridine-2-carboxamide] | 91 | 870
CC(C)(C)NCc1cc(O)c(CC(=O)Nc2ccnc(C(=O)NC(C)(C)C)c2)cc1Cl [Example 27.1, N-tert-Butyl-4-[[2-[4-[(tert-butylamino)methyl]-5-chloro-2-hydroxy-phenyl]acetyl]amino]pyridine-2-carboxamide] | 52 | –
CC(C)(C)NC(=O)c1cccc(NC(=O)Cc2ccc(C(F)(F)F)cc2O)c1 [Example 2.19, N-tert-Butyl-3-[[2-[2-hydroxy-4-(trifluoromethyl)phenyl]acetyl]amino]benzamide] | 249 | 460
O=C(Cc1cc(Cl)ccc1O)Nc1ccnc(C(=O)NCc2ccccn2)c1 [Example 32.3, 4-[[2-(5-Chloro-2-hydroxy-phenyl)acetyl]amino]-N-(2-pyridylmethyl)pyridine-2-carboxamide] | 288 | 290
CC(C(=O)Nc1cccc(C(=O)NC(C)(C)C)c1)c1ccccc1O (centres unmarked) [Example 2.7, N-tert-Butyl-3-[2-(2-hydroxyphenyl)propanamido]benzamide] | 51 | 8190
CC(C)(O)C(C)(C)NC(=O)c1cc(NC(=O)Cc2cc(Cl)ccc2O)ccn1 [Example 7.14, 4-[[2-(5-Chloro-2-hydroxy-phenyl)acetyl]amino]-N-(2-hydroxy-1,1,2-trimethyl-propyl)pyridine-2-carboxamide] | 225 | 150
CC(C)(C)NC(=O)c1cc(NC(=O)Cc2ccc(Cl)c(F)c2)ccn1 [Example 5.18, N-tert-Butyl-4-[[2-(4-chloro-3-fluoro-phenyl)acetyl]amino]pyridine-2-carboxamide] | 79 | 460
CC(C)(C)NC(=O)c1cc(NC(=O)Cc2cc(C(C)(C)C)ccc2O)ccn1 [Example 10, N-tert-Butyl-4-[[2-(5-tert-butyl-2-hydroxy-phenyl)acetyl]amino]pyridine-2-carboxamide] | 250 | 220
CC(O)c1ccc(O)c(CC(=O)Nc2ccnc(C(=O)NC(C)(C)C)c2)c1 (centres unmarked) [Example 66, N-tert-Butyl-4-[[2-[2-hydroxy-5-(1-hydroxyethyl)phenyl]acetyl]amino]pyridine-2-carboxamide] | 130 | –
CC(C)(C)c1ccc(O)c(CC(=O)Nc2ccnc(C(=O)NC34CC(C3)C4)c2)c1 [Example 25, N-(3-Bicyclo[1.1.1]pentanyl)-4-[[2-(5-tert-butyl-2-hydroxy-phenyl)acetyl]amino] pyridine-2-carboxamide] | 330 | 370

Compound | % Potentiation @ 3.33 μM Avg [%] | EC50 [nM]
CC(C)(C)NC(=O)c1cc(NC(=O)Cc2cccc(O)c2Cl)ccn1 [Example 3.15b, N-tert-Butyl-4-[[2-(2-chloro-3-hydroxy-phenyl)acetyl]amino]pyridine-2-carboxamide] | 127 | –
CC(C)C(C)(C)NC(=O)c1cccc(NC(=O)Cc2cc(Cl)ccc2O)c1 [Example 7.5, 3-[[2-(5-Chloro-2-hydroxy-phenyl)acetyl]amino]-N-(1,1,2-trimethylpropyl)benzamide] | 239 | 280
O=C(Cc1cc(Cl)ccc1O)Nc1ccnc(C(=O)N[C@@H]2CCC[C@@H]2O)c1 [Example 35.18, 4-[[2-(5-Chloro-2-hydroxy-phenyl)acetyl]amino]-N-[(1R,2S)-2-hydroxycyclopentyl]pyridine-2-carboxamide] | 147 | 430
CCC(C)(C)NC(=O)c1cccc(NC(=O)Cc2cc(Cl)ccc2O)c1 [Example 1.5, 3-[[2-(5-Chloro-2-hydroxy-phenyl)acetyl]amino]-N-(1,1-dimethylpropyl)benzamide] | 149 | 340
Cc1ccc(O)c(CC(=O)Nc2ccnc(C(=O)NC(C)(C)C)c2)c1 [Example 15, N-tert-Butyl-4-[[2-(2-hydroxy-5-methyl-phenyl)acetyl]amino]pyridine-2-carboxamide] | 200 | 130
CC(C)(C)NC(=O)c1cccc(NC(=O)Cc2c[nH]c3ccc(F)cc23)c1 [Example 4.2, N-tert-Butyl-3-[[2-(5-fluoro-1H-indol-3-yl)acetyl]amino]benzamide] | 116 | 660
CC(C)(C)NC(=O)c1cccc(NC(=O)Cc2ccc(F)cc2O)c1 [Example 2.3, N-tert-Butyl-3-[[2-(4-fluoro-2-hydroxy-phenyl)acetyl]amino]benzamide] | 203 | 590
CC(C)(C)NC(=O)c1cccc(NC(=O)Cc2c(O)cccc2F)c1 [Example 2.15, N-tert-Butyl-3-[[2-(2-fluoro-6-hydroxy-phenyl)acetyl]amino]benzamide] | 163 | 490
CC1(NC(=O)c2cccc(NC(=O)Cc3cc(Cl)ccc3O)c2)CCOCC1 [Example 7.8, 3-[[2-(5-Chloro-2-hydroxy-phenyl)acetyl]amino]-N-(4-methyltetrahydropyran-4-yl)benzamide] | 231 | 920
CC(C)(C)NC(=O)c1cc(NC(=O)Cc2cc(Cl)cc(Cl)c2)ccn1 [Example 5.19, N-tert-Butyl-4-[[2-(3,5-dichlorophenyl)acetyl]amino]pyridine-2-carboxamide] | 75 | 1850
CC(C)(CF)NC(=O)c1cc(NC(=O)Cc2ccccc2Cl)ccn1 [Example 30.10, 4-[[2-(2-Chlorophenyl)acetyl]amino]-N-(2-fluoro-1,1-dimethyl-ethyl)pyridine-2-carboxamide] | 265 | –
CC(C)(C)NC(=O)c1cc(NC(=O)Cc2ccc3ncccc3c2)ccn1 [Example 5.29, N-tert-Butyl-4-[[2-(6-quinolyl)acetyl]amino]pyridine-2-carboxamide] | 190 | 860
CC(C)(C)NC(=O)c1cc(NC(=O)NCc2cccc(Cl)c2)ccn1 [Example 64.7, N-tert-Butyl-4-[(3-chlorophenyl)methylcarbamoylamino]pyridine-2-carboxamide] | 83 | –
CC(C)(C#N)NC(=O)c1cc(NC(=O)C2CCC(F)(F)C2)ccn1 (centres unmarked) [Example 83.3, N-(1-Cyano-1-methyl-ethyl)-4-[(3,3-difluorocyclopentanecarbonyl)amino]pyridine-2-carboxamide] | 16 | –
CC(C)(C)NC(=O)c1cc(NC(=O)Cc2ccccc2O)ccn1 [Example 1, N-tert-Butyl-4-[[2-(2-hydroxyphenyl)acetyl]amino]pyridine-2-carboxamide] | 203 | 210
CC(C)(C)NC(=O)c1cc(NC(=O)Cc2cc(O)ccc2Cl)ccn1 [Example 3.16b, N-tert-Butyl-4-[[2-(2-chloro-5-hydroxy-phenyl)acetyl]amino]pyridine-2-carboxamide] | 167 | 170
CC(C)(C#N)NC(=O)c1cc(NC(=O)CC2CCC(F)(F)CC2)ccn1 [Example 83.10, N-(1-Cyano-1-methyl-ethyl)-4-[[2-(4,4-difluorocyclohexyl)acetyl]amino]pyridine-2-carboxamide] | 62 | –
